This is an account of results in patent US11858941B2, “Heterocyclic and heteroaryl compounds for treating Huntington's disease” (PTC THERAPEUTICS, INC., priority 2018, dated 2024).

For the test, the system named is Endogenous Huntingtin Protein. Kind of test: Endogenous Huntingtin Protein Assay (Meso Scale Discovery ELISA-based electrochemiluminescence). Format: cell-based. As to conditions: MSD plates coated with MW1 (expanded polyglutamine) or MAB2166 capture antibody; lysates. As to the method:
Compounds of Formula (I) were tested using the Meso Scale Discovery (MSD) Assay provided in International Application No. PCT/US2016/066042, filed on Dec. 11, 2016 and claiming priority to United States Provisional Application U.S. 62/265,652 filed on Dec. 10, 2015, the entire contents of which are incorporated herein by reference.
The Endogenous Huntingtin Protein assay used in Example 1 was developed using the ELISA-based MSD electrochemiluminescence assay platform.
Endogenous Huntingtin Protein Assay
Meso Scale Discovery (MSD) 96-well or 384-well plates were coated overnight at 4° C. with MW1 (expanded polyglutamine) or MAB2166 monoclonal antibody (for capture) at a concentration of 1 μg/mL in PBS (30 μL per well). Plates were then washed three times with 300 μL wash buffer (0.05% Tween-20 in PBS) and blocked (100 μL blocking buffer; 5% BSA in PBS) for 4-5 hours at room temperature with rotational shaking and then washed three times with wash buffer.
Samples (25 μL) were transferred to the antibody-coated MSD plate and incubated overnight at 4° C. After removal of the lysates, the plate was washed three times with wash buffer, and 25 μL of #5656S (Cell signaling; rabbit monoclonal) secondary antibody (diluted to 0.25 μg/mL in 0.05% Tween-20 in blocking buffer) was added to each well and incubated with shaking for 1 Hour at room temperature. Following incubation with the secondary antibody, the wells were rinsed with wash buffer after which 25 μL of goat anti-rabbit SULFO TAG secondary detection antibody (required aspect of the MSD system) (diluted to 0.25 μg/mL in 0.05% Tween-20 in blocking buffer) was added to each well and incubated with shaking for 1 hour at room temperature. After rinsing three times with wash buffer, 150 μL of read buffer T with surfactant (MSD) were added to each empty well, and the plate was imaged on a SI 6000 imager (MSD) according to manufacturers' instructions provided for 96- or 384-well plates.
(In an ELISA, binding on a coated surface is turned into a signal by an enzyme label.)
As usually defined, the IC50 is the point on the concentration scale where inhibition reaches its midpoint. The low end stands for greater potency, the high end for weaker potency. Regarding `Cn1ccc(-c2cc(O)c(-c3cc4nnn(C5CC(C)(C)NC(C)(C)C5)c4nn3)cc2F)cc1=O` [Cpd 55, 4-{2-fluoro-5-hydroxy-4-[3-(2,2,6,6-tetramethylpiperidin-4-yl)-3H-[1,2,3]triazolo[4,5-c]pyridazin-6-yl]phenyl}-1-methylpyridin-2(1H)-one], the half-maximal inhibitory concentration (IC50) fell in the range of 100 to 500 nM.
The result for `Cc1nc(F)c(-c2ccc(-c3cc4nnn(C5CC(C)(C)NC(C)(C)C5)c4nn3)c(O)c2)s1` [Cpd 154, 5-(4-fluoro-2-methyl-1,3-thiazol-5-yl)-2-[3-(2,2,6,6-tetramethylpiperidin-4-yl)-3H-[1,2,3]triazolo[4,5-c]pyridazin-6-yl]phenol] reads at most 100 nM; that for `Oc1cc(-c2cn[nH]c2)ccc1-c1cnc2c(cnn2C2CCNCC2)n1` [Cpd 19, 2-[1-(piperidin-4-yl)-1H-pyrazolo[3,4-b]pyrazin-5-yl]-5-(1H-pyrazol-4-yl)phenol], 1000 to 3000 nM; that for `CC1(C)CC(n2ncc3cc(-c4ccc(-c5c[nH]nc5F)cc4O)nnc32)CC(C)(C)N1` [Cpd 161, 5-(3-fluoro-1H-pyrazol-4-yl)-2-(1-(2,2,6,6-tetramethylpiperidin-4-yl)-1H-pyrazolo[3,4-c]pyridazin-5-yl)phenol], at most 100 nM.
The result for `CNc1nc2cc(-c3ccc(-c4cn[nH]c4)cc3O)nnc2n1C1CC(C)(C)NC(C)(C)C1` [Cpd 42, 2-[6-(methylamino)-7-(2,2,6,6-tetramethylpiperidin-4-yl)-7H-imidazo[4,5-c]pyridazin-3-yl]-5-(1H-pyrazol-4-yl)phenol] reads 100 to 500 nM.
Turning to `CC1(C)CC(n2nnc3cc(-c4ccc(-c5cnc6cnccn56)cc4O)nnc32)CC(C)(C)N1` [Cpd 85, 5-(imidazo[1,2-a]pyrazin-3-yl)-2-[3-(2,2,6,6-tetramethylpiperidin-4-yl)-3H-[1,2,3]triazolo[4,5-c]pyridazin-6-yl]phenol], the 50% inhibitory concentration (IC50) lay within 1000 to 3000 nM.
The result for `CC1(C)CC(n2nnc3cc(-c4ccc(-c5c[nH]cn5)cc4O)nnc32)CC(C)(C)N1` [Cpd 115, 5-(1H-imidazol-4-yl)-2-[3-(2,2,6,6-tetramethylpiperidin-4-yl)-3H-[1,2,3]triazolo[4,5-c]pyridazin-6-yl]phenol] reads 100 to 500 nM.
The result for `CC1(C)C[C@H](n2nnc3cc(-c4ccc(-c5c[nH]nc5F)cc4O)nnc32)[C@H](F)C(C)(C)N1` [Cpd 173, 5-(3-fluoro-1H-pyrazol-4-yl)-2-{3-[(3S,4S)-3-fluoro-2,2,6,6-tetramethylpiperidin-4-yl]-3H-[1,2,3]triazolo[4,5-c]pyridazin-6-yl}phenol] reads at most 100 nM.
Consider `CC1(C)CC(n2nnc3cc(-c4ccc(-c5ccncc5)cc4O)nnc32)CC(C)(C)N1` [Cpd 66, 5-(pyridin-4-yl)-2-[3-(2,2,6,6-tetramethylpiperidin-4-yl)-3H-[1,2,3]triazolo[4,5-c]pyridazin-6-yl]phenol], for which the IC50 is at most 100 nM.
Consider `Cc1nc2cc(-c3cc4nnn(C5CC(C)(C)NC(C)(C)C5)c4nn3)c(O)cc2[nH]1` [Cpd 97, 2-methyl-5-[3-(2,2,6,6-tetramethylpiperidin-4-yl)-3H-[1,2,3]triazolo[4,5-c]pyridazin-6-yl]-1H-benzimidazol-6-ol], for which the concentration for half-maximal inhibition (IC50) was at most 100 nM.
The result for `Cn1cc(-c2cc(O)c(-c3cc4nnn(C5CC(C)(C)NC(C)(C)C5)c4nn3)cc2F)cn1` [Cpd 62, 4-fluoro-5-(1-methyl-1H-pyrazol-4-yl)-2-[3-(2,2,6,6-tetramethylpiperidin-4-yl)-3H-[1,2,3]triazolo[4,5-c]pyridazin-6-yl]phenol] reads at most 100 nM.
The compound `CC1(C)CC(n2nnc3cc(-c4ccc(-c5nccs5)cc4O)nnc32)CC(C)(C)N1` [Cpd 96, 2-[3-(2,2,6,6-tetramethylpiperidin-4-yl)-3H-[1,2,3]triazolo[4,5-c]pyridazin-6-yl]-5-(1,3-thiazol-2-yl)phenol] returned a 50% inhibitory concentration (IC50) of at most 100 nM.
To `CC1(C)CC(n2cnc3cc(-c4ccc(-c5cn[nH]c5)cc4O)nnc32)CC(C)(C)N1` [Cpd 3, 5-(1H-pyrazol-4-yl)-2-[7-(2,2,6,6-tetramethylpiperidin-4-yl)-7H-imidazo[4,5-c]pyridazin-3-yl]phenol] belongs at most 100 nM.
In turn, `CC1(C)CC(n2nnc3cc(-c4ccc(-c5ncc(C#N)s5)cc4O)nnc32)CC(C)(C)N1` [Cpd 110, 2-{3-hydroxy-4-[3-(2,2,6,6-tetramethylpiperidin-4-yl)-3H-[1,2,3]triazolo[4,5-c]pyridazin-6-yl]phenyl}-1,3-thiazole-5-carbonitrile] came in with an IC50 of 100 to 500 nM.
To `Cc1cn(-c2ccc(-c3cc4nnn(C5CC(C)(C)NC(C)(C)C5)c4nn3)c(O)c2)c(C)n1` [Cpd 149, 5-(2,4-dimethyl-1H-imidazol-1-yl)-2-[3-(2,2,6,6-tetramethylpiperidin-4-yl)-3H-[1,2,3]triazolo[4,5-c]pyridazin-6-yl]phenol] belongs 1000 to 3000 nM; to `CC1(C)CC(n2nnc3cc(-c4ccc(-c5cnc6nn[nH]c6c5)cc4O)nnc32)CC(C)(C)N1` [Cpd 145, 2-[3-(2,2,6,6-tetramethylpiperidin-4-yl)-3H-[1,2,3]triazolo[4,5-c]pyridazin-6-yl]-5-(1H-[1,2,3]triazolo[4,5-b]pyridin-6-yl)phenol], 1000 to 3000 nM; to `CC1(C)CC(n2nnc3cc(-c4cc(F)c(-c5cn[nH]c5)cc4F)nnc32)CC(C)(C)N1` [Cpd 14, 6-[2,5-difluoro-4-(1H-pyrazol-4-yl)phenyl]-3-(2,2,6,6-tetramethylpiperidin-4-yl)-3H-[1,2,3]triazolo[4,5-c]pyridazine], 100 to 500 nM.
Take `CN1C(C)(C)CC(n2nnc3cc(-c4ccc(-c5cn[nH]c5)cc4O)nnc32)CC1(C)C` [Cpd 52, 2-[3-(1,2,2,6,6-pentamethylpiperidin-4-yl)-3H-[1,2,3]triazolo[4,5-c]pyridazin-6-yl]-5-(1H-pyrazol-4-yl)phenol]: the IC50 lay in the range of 500 to 1000 nM.
To `CC1(C)CC(n2nnc3cc(-c4cc5c(cc4O)/C(=N/O)CC5)nnc32)CC(C)(C)N1` [Cpd 82, (3E)-3-(hydroxyimino)-6-[3-(2,2,6,6-tetramethylpiperidin-4-yl)-3H-[1,2,3]triazolo[4,5-c]pyridazin-6-yl]-2,3-dihydro-1H-inden-5-ol] belongs 100 to 500 nM; to `CCOc1cc(-c2ccc(-c3cc4nnn(C5CC(C)(C)NC(C)(C)C5)c4nn3)c(O)c2)ncn1` [Cpd 124, 5-(6-ethoxypyrimidin-4-yl)-2-[3-(2,2,6,6-tetramethylpiperidin-4-yl)-3H-[1,2,3]triazolo[4,5-c]pyridazin-6-yl]phenol], at most 100 nM; to `C[C@]12CC[C@](C)(CC(n3nnc4cc(-c5ccc(-c6cn[nH]c6)cc5O)nnc43)C1)N2` (stereo partly drawn) [Cpd 57, 2-{3-[(1R,5S)-1,5-dimethyl-8-azabicyclo[3.2.1]octan-3-yl]-3H-[1,2,3]triazolo[4,5-c]pyridazin-6-yl}-5-(1H-pyrazol-4-yl)phenol], at most 100 nM.
The result for `Oc1cc(-c2cn[nH]c2)ccc1-c1cc2[nH]cc(C3CC4CCC(C3)N4)c2nn1` (stereo not shown) [Cpd 29, 2-[7-(8-azabicyclo[3.2.1]oct-3-yl)-5H-pyrrolo[3,2-c]pyridazin-3-yl]-5-(1H-pyrazol-4-yl)phenol] reads at most 100 nM; that for `CC1(C)CC(n2ncc3cc(-c4ccc(-c5ccncc5)cc4O)nnc32)CC(C)(C)N1` [Cpd 165, 5-(pyridin-4-yl)-2-[1-(2,2,6,6-tetramethylpiperidin-4-yl)-1H-pyrazolo[3,4-c]pyridazin-5-yl]phenol], at most 100 nM; that for `CC1(C)CC(n2nnc3cc(-c4ccc(-n5cncn5)cc4O)nnc32)CC(C)(C)N1` [Cpd 63, 2-[3-(2,2,6,6-tetramethylpiperidin-4-yl)-3H-[1,2,3]triazolo[4,5-c]pyridazin-6-yl]-5-(1H-1,2,4-triazol-1-yl)phenol], at most 100 nM.
To `COc1nccc(-c2ccc(-c3cc4nnn(C5CC(C)(C)NC(C)(C)C5)c4nn3)c(O)c2)n1` [Cpd 119, 5-(2-methoxypyrimidin-4-yl)-2-[3-(2,2,6,6-tetramethylpiperidin-4-yl)-3H-[1,2,3]triazolo[4,5-c]pyridazin-6-yl]phenol] belongs 100 to 500 nM; to `CC1(C)CC(n2nnc3cc(-c4ccc(-c5ccoc5)cc4O)nnc32)CC(C)(C)N1` [Cpd 95, 5-(furan-3-yl)-2-[3-(2,2,6,6-tetramethylpiperidin-4-yl)-3H-[1,2,3]triazolo[4,5-c]pyridazin-6-yl]phenol], 100 to 500 nM; to `CC1(C)CC(n2nnc3cc(-c4ccc(-c5nncs5)cc4O)nnc32)CC(C)(C)N1` [Cpd 116, 2-[3-(2,2,6,6-tetramethylpiperidin-4-yl)-3H-[1,2,3]triazolo[4,5-c]pyridazin-6-yl]-5-(1,3,4-thiadiazol-2-yl)phenol], at most 100 nM.
Regarding `Cn1ccc(-c2ccc(-c3cc4cnn(C5CC(C)(C)NC(C)(C)C5)c4nn3)c(O)c2)n1` [Cpd 169, 5-(1-methyl-1H-pyrazol-3-yl)-2-[1-(2,2,6,6-tetramethylpiperidin-4-yl)-1H-pyrazolo[3,4-c]pyridazin-5-yl]phenol], the 50% inhibitory concentration (IC50) was at most 100 nM.
